± gives the expanded uncertainty stated by the source.

Our source for the viscosity and mass density values is the NIST ThermoML archive (doi:10.1021/je1009976).

The conditions of series [1]: 101 kPa, Liquid; for viscosity: Capillary tube (Ostwald / Ubbelohde) method; for mass density: Pycnometric method.
Series [2] can be described thus: xn = mol fraction of the nth substance listed. The settings on record: 101 kPa, Liquid, x2 = 0; for viscosity: Capillary tube (Ostwald / Ubbelohde) method; for mass density: Pycnometric method.

Broadly, the viscosity is the resistance of a fluid to flow. Broadly, the mass density is mass per unit of volume. Consider `OCCOCCO` [diethylene glycol], for which the viscosity came to 22.16 ± 0.46 mPa·s in series [1] (303.15 K); 17.93 ± 0.44 mPa·s in series [1] (308.15 K); 14.71 ± 0.43 mPa·s in series [1] (313.15 K); 12.19 ± 0.42 mPa·s in series [1] (318.15 K); 10.19 ± 0.41 mPa·s in series [1] (323.15 K). Besides, the mass density in series [1] (303.15 K) is reported as 1109.48 ± 0.75 kg/m3; in series [1] (308.15 K) it was 1105.72 ± 0.75 kg/m3; in series [1] (313.15 K) it was 1102.11 ± 0.76 kg/m3; in series [1] (318.15 K) it was 1098.35 ± 0.76 kg/m3; in series [1] (323.15 K), 1094.94 ± 0.75 kg/m3.

Take `O` [water] + OCCOCCO: the viscosity in series [2] (303.15 K) is 0.801 ± 0.4 mPa·s; in series [2] (308.15 K), 0.722 mPa·s; in series [2] (313.15 K) it was 0.656 mPa·s; in series [2] (318.15 K), 0.598 mPa·s; in series [2] (323.15 K), 0.549 mPa·s. Moreover, the mass density in series [2] (308.15 K) stood at 994.12 ± 0.39 kg/m3; in series [2] (318.15 K) it was 990.3 ± 0.44 kg/m3.
